Reference: patent publication US10597388B2, “Pyridazinone herbicides” (FMC CORPORATION, priority 2014, dated 2020)

Tests used:
Assay in all cases: Test E greenhouse herbicide test, pre- and postemergence
Format in all cases: in vivo
[1] = system: arrowleaf sida (Sida rhombifolia)
In short: (§1)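 For each species, sown seed in silt loam and young plants (2 to 18 cm) in a peat/vermiculite medium were each treated with compound dissolved in surfactant-containing, non-phytotoxic solvent. After 14 to 21 d under greenhouse conditions, effects were visually rated, 100 meaning complete control.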

[2] = system: barnyardgrass (Echinochloa crus-galli)
In short: as §1

[3] = system: crabgrass, Brazilian (Brazilian crabgrass, Digitaria horizontalis)
In short: as §1

[4] = system: crabgrass, large (large crabgrass, Digitaria sanguinalis); details: Preemergence
In short: as §1

[5] = system: field bindweed (Convolvulus arvensis)
In short: as §1

[6] = system: foxtail, giant (giant foxtail, Setaria faberii); details: Preemergence
In short: as §1

[7] = system: goosegrass (Eleusine indica); details: Preemergence
In short: as §1

[8] = system: horseweed (Conyza canadensis)
In short: as §1

[9] = system: johnsongrass (Sorghum halepense); details: Preemergence
In short: as §1

[10] = system: momingglory (Ipomoea coccinea); details: Preemergence
In short: as §1

[11] = system: nightshade (eastern black nightshade, Solanum ptycanthum); details: Preemergence
In short: as §1

[12] = system: panicum, fall (fall panicum, Panicum dichotomiflorum)
In short: as §1

[13] = system: pigweed, palmer (palmer pigweed, Amaranthus palmeri)
In short: as §1

[14] = system: ragweed (common ragweed, Ambrosia elatior)
In short: as §1

soybean (Glycine max) = system: soybean (Glycine max)
In short: as §1

[15] = system: surinam grass (Brachiaria decumbens); details: Preemergence
In short: as §1

[16] = 62 g ai/ha, Postemergence, scale 0 to 100 (0 no effect, 100 complete control)
[17] = 62 g ai/ha, Preemergence, scale 0 to 100 (0 no effect, 100 complete control)
[18] = 125 g ai/ha, Postemergence, scale 0 to 100 (0 no effect, 100 complete control)
[19] = 125 g ai/ha, Preemergence, scale 0 to 100 (0 no effect, 100 complete control)
[20] = Postemergence, 16 g ai/ha, visual, scale 0 no effect to 100 complete control
[21] = Postemergence, 31 g ai/ha, visual, scale 0 no effect to 100 complete control
[22] = Preemergence, 16 g ai/ha, scale 0 to 100, 0 no effect, 100 complete control
[23] = Preemergence, 31 g ai/ha, scale 0 to 100, 0 no effect, 100 complete control
[24] = 62 g ai/ha, scale 0 to 100 (0 no effect, 100 complete control)
[25] = 125 g ai/ha, scale 0 to 100 (0 no effect, 100 complete control)
[26] = 16 g ai/ha, scale 0 to 100, 0 no effect, 100 complete control
[27] = 31 g ai/ha, scale 0 to 100, 0 no effect, 100 complete control

`CCCC(=O)Oc1c(C)nn(C)c(=O)c1-c1c(C)sc2ccc(C)cc12` [Compound 105] was tested, and the “Plant response rating, Arrowleaf Sida” value [1, 16] was 60, the “Plant response rating, Arrowleaf Sida” value [1, 17] was 40 and the “Plant response rating, Arrowleaf Sida” value [1, 18] was 70. The “Plant response rating, Arrowleaf Sida” value [1, 19] was 50, the “Plant response rating, Arrowleaf Sida” value [1, 20] was 50 and the “Plant response rating, Arrowleaf Sida” value [1, 21] was 60. For the same compound, the “Plant response rating, Arrowleaf Sida” value [1, 22] was 0, the “Plant response rating, Arrowleaf Sida” value [1, 23] was 0 and the “Plant response rating, Barnyardgrass” value [2, 16] was 30. The “Plant response rating, Barnyardgrass” value [2, 17] was 20, the “Plant response rating, Barnyardgrass” value [2, 18] was 30 and the “Plant response rating, Barnyardgrass” value [2, 19] was 35. For the same compound, the “Plant response rating, Barnyardgrass” value [2, 20] was 15, the “Plant response rating, Barnyardgrass” value [2, 21] was 20 and the “Plant response rating, Barnyardgrass” value [2, 22] was 20. For the same compound, the “Plant response rating, Crabgrass, Brazil” value [3, 16] was 40, the “Plant response rating, Crabgrass, Brazil” value [3, 17] was 35 and the “Plant response rating, Crabgrass, Brazil” value [3, 18] was 50. For the same compound, the “Plant response rating, Crabgrass, Brazil” value [3, 19] was 75, the “Plant response rating, Crabgrass, Brazil” value [3, 20] was 5 and the “Plant response rating, Crabgrass, Brazil” value [3, 21] was 20. The “Plant response rating, Crabgrass, Brazil” value [3, 23] was 0, the “Plant response rating, Crabgrass, Large” value [4, 24] was 50 and the “Plant response rating, Crabgrass, Large” value [4, 25] was 75. The “Plant response rating, Crabgrass, Large” value [4, 26] was 0, the “Plant response rating, Crabgrass, Large” value [4, 27] was 0 and the “Plant response rating, Field Bindweed” value [5, 16] was 75. For the same compound, the “Plant response rating, Field Bindweed” value [5, 17] was 50, the “Plant response rating, Field Bindweed” value [5, 18] was 95 and the “Plant response rating, Field Bindweed” value [5, 19] was 70. The “Plant response rating, Field Bindweed” value [5, 20] was 75, the “Plant response rating, Field Bindweed” value [5, 21] was 80 and the “Plant response rating, Field Bindweed” value [5, 22] was 20. The “Plant response rating, Field Bindweed” value [5, 23] was 20, the “Plant response rating, Foxtail, Giant” value [6, 24] was 35 and the “Plant response rating, Foxtail, Giant” value [6, 25] was 75. For the same compound, the “Plant response rating, Foxtail, Giant” value [6, 26] was 0, the “Plant response rating, Foxtail, Giant” value [6, 27] was 0 and the “Plant response rating, Goosegrass” value [7, 24] was 0. For the same compound, the “Plant response rating, Goosegrass” value [7, 25] was 10, the “Plant response rating, Goosegrass” value [7, 26] was 0 and the “Plant response rating, Goosegrass” value [7, 27] was 0. The “Plant response rating, Horseweed” value [8, 16] was 85, the “Plant response rating, Horseweed” value [8, 17] was 100 and the “Plant response rating, Horseweed” value [8, 19] was 100. The “Plant response rating, Horseweed” value [8, 20] was 80, the “Plant response rating, Horseweed” value [8, 21] was 85 and the “Plant response rating, Horseweed” value [8, 22] was 0. For the same compound, the “Plant response rating, Horseweed” value [8, 23] was 0, the “Plant response rating, Johnsongrass” value [9, 24] was 20 and the “Plant response rating, Johnsongrass” value [9, 25] was 20. For the same compound, the “Plant response rating, Johnsongrass” value [9, 26] was 0, the “Plant response rating, Johnsongrass” value [9, 27] was 0 and the “Plant response rating, Morningglory” value [10, 24] was 70. For the same compound, the “Plant response rating, Morningglory” value [10, 25] was 60, the “Plant response rating, Morningglory” value [10, 26] was 40 and the “Plant response rating, Morningglory” value [10, 27] was 20. For the same compound, the “Plant response rating, Nightshade” value [11, 24] was 98, the “Plant response rating, Nightshade” value [11, 25] was 98 and the “Plant response rating, Nightshade” value [11, 26] was 0. The “Plant response rating, Nightshade” value [11, 27] was 50, the “Plant response rating, Panicum, Fall” value [12, 16] was 70 and the “Plant response rating, Panicum, Fall” value [12, 17] was 90. For the same compound, the “Plant response rating, Panicum, Fall” value [12, 18] was 80, the “Plant response rating, Panicum, Fall” value [12, 19] was 98 and the “Plant response rating, Panicum, Fall” value [12, 20] was 40. For the same compound, the “Plant response rating, Panicum, Fall” value [12, 21] was 60, the “Plant response rating, Panicum, Fall” value [12, 22] was 25 and the “Plant response rating, Panicum, Fall” value [12, 23] was 65. The “Plant response rating, Pigweed, Palmer” value [13, 16] was 70, the “Plant response rating, Pigweed, Palmer” value [13, 17] was 98 and the “Plant response rating, Pigweed, Palmer” value [13, 18] was 70. For the same compound, the “Plant response rating, Pigweed, Palmer” value [13, 19] was 90, the “Plant response rating, Pigweed, Palmer” value [13, 20] was 75 and the “Plant response rating, Pigweed, Palmer” value [13, 21] was 70. The “Plant response rating, Pigweed, Palmer” value [13, 22] was 0, the “Plant response rating, Pigweed, Palmer” value [13, 23] was 0 and the “Plant response rating, Ragweed” value [14, 16] was 90. For the same compound, the “Plant response rating, Ragweed” value [14, 17] was 95, the “Plant response rating, Ragweed” value [14, 18] was 95 and the “Plant response rating, Ragweed” value [14, 19] was 98. For the same compound, the “Plant response rating, Ragweed” value [14, 20] was 70, the “Plant response rating, Ragweed” value [14, 22] was 50 and the “Plant response rating, Ragweed” value [14, 23] was 65. The “Plant response rating, Soybean” value (soybean (Glycine max); [17]) was 0, the “Plant response rating, Soybean” value (soybean (Glycine max); [18]) was 25 and the “Plant response rating, Soybean” value (soybean (Glycine max); [19]) was 75. For the same compound, the “Plant response rating, Soybean” value (soybean (Glycine max); [20]) was 0, the “Plant response rating, Soybean” value (soybean (Glycine max); [21]) was 10 and the “Plant response rating, Soybean” value (soybean (Glycine max); [22]) was 0. The “Plant response rating, Soybean” value (soybean (Glycine max); [23]) was 0, the “Plant response rating, Surinam Grass” value [15, 24] was 10 and the “Plant response rating, Surinam Grass” value [15, 25] was 70. For the same compound, the “Plant response rating, Surinam Grass” value [15, 26] was 0 and the “Plant response rating, Surinam Grass” value [15, 27] was 0.
